The values below come from patent publication US12590081B2, “Fused imidazole derivatives, preparation method and medicinal use thereof” (Jiangsu Hengrui Pharmaceuticals Co., Ltd., priority 2020, dated 2026).

The target in one assay is T1, GLP-1 receptor (Homo sapiens, UniProt P43220).
T1 construct: expressed in transfected cells
Description: Agonist activity against GLP-1 receptor, CRE-luciferase reporter (ONE-Glo) in CHO-K1/CRE-luc/GLP-1 receptor cells. Particulars: 6 h incubation, luciferase readout. In kind it is cell-based. An excerpt:
This experiment was intended to test the agonist activity of the compound molecules against the GLP-1 receptor and evaluate the in vitro activity of the molecules according to EC50. The experiment adopted a ONE-Glo™ Luciferase Assay System (Promega, E6110). Under the action of compound molecules, GLP-1R downstream signaling pathways were activated to cause elevated cAMP level. The combination of cAMP and CRE could start the transcription expression of CRE downstream luciferase genes, the luciferase could emit fluorescence when reacting with substrates thereof, and the activity of the compound for agonizing GLP-1 receptors was reflected by measuring fluorescence signals through a ONE-Glo™ reagent.
Stably-expressed CHO-K1/CRE-luc/GLP-1 receptor cell strains (self-construction of GLP-1 receptor plasmid; CRE-luc plasmid Promega E8471) was constructed. CHO-K1/CRE-luc/GLP-1 receptor cells were digested, and resuspended after centrifugation. Single cell suspension was uniformly mixed, and adjusted to a viable cell density of 2.5×10^5 cell/mL with a cell culture medium (DME/F-12+10% FBS), and the resulting solution was added to a 96-well cell culture plate at 90 μL/well (Corning, #3903). The plate was incubated in an incubator for 16 h (37° C., 5% CO2).
The compound was dissolved in DMSO to prepare a stock solution with an initial concentration of 20 mM. The starting concentration of the small molecule compound was 0.2 mM, and the compound underwent 3-fold serial dilution for a total of 10 concentration points, with DMSO at the 11th point. To another 96-well plate was added 95 μL of cell culture medium (DME/F-12+10% FBS), 5 μL of test samples with different concentrations were added to each well, followed by uniform mixing, and then 10 μL of test samples with different concentrations were added to each well, with two duplicate wells set for each sample. The plate was incubated in an incubator for 6 h (37° C., 5% CO2). The 96-well cell culture plate was taken out, and 100 μL of ONE-Glo™ reagent was added to each well, followed by incubation at room temperature for 10 min. The plate was placed in a microplate reader (EnVision 2105, PE) for determination of chemiluminescence.
Data were processed and analyzed using Microsoft Excel and Graphpad Prism 5.

For assay [1], the target named is T2, hERG potassium ion channel (Homo sapiens, UniProt Q12809).
T2 construct: expressed in transfected cells
Put plainly: Blocking effect on hERG potassium currents, automated patch clamp in HEK293-hERG cells. The format is cell-based. Particulars: automated patch clamp (Patchliner). Here is the method: The blocking effect of hERG potassium currents by the compounds of the present disclosure was tested in a stable cell strain transfected with an hERG potassium channel using an automated patch clamp.
HEK293 cell lines were transfected with pCDNA3.1(+) from which the hERG gene had been constructed, and then stably-expressed monoclonal HEK293-hERG cell strains were selected by addition of G418. Stably-expressed HEK293-hERG cell strains were subcultured at a density of 1:4 in an MEM/EBSS medium (10% FBS, […] G418, 1% MEM non-essential amino acid solution (100×), 1% sodium pyruvate solution) and subjected to an automated patch clamp experiment within 48-72 h after the start of the culture. On the day of experiment, the cells were digested with […] pancreatin (life technologies, 12563-029), collected by centrifugation and resuspended in an extracellular fluid (140 mM NaCl, 4 mM KCl, 1 mM MgCl2, 2 mM CaCl2, 5 mMD glucose monohydrate, 10 mM HEPES, pH 7.4, 298 mOsmol) to prepare a cell suspension. The cell suspension was placed on the cell bank of the Patchliner instrument that transferred the cells to the chip (NPC-16) using a negative pressure controller. […] The currents at various concentrations of the compound and in the blank control were analyzed by data analysis software provided by HEAK EPC10 patch clamp amplifier (Nanion) and Pathlinersoftware and Pathcontrol HTsoftware. […]

T1 sequence (P43220 24-463): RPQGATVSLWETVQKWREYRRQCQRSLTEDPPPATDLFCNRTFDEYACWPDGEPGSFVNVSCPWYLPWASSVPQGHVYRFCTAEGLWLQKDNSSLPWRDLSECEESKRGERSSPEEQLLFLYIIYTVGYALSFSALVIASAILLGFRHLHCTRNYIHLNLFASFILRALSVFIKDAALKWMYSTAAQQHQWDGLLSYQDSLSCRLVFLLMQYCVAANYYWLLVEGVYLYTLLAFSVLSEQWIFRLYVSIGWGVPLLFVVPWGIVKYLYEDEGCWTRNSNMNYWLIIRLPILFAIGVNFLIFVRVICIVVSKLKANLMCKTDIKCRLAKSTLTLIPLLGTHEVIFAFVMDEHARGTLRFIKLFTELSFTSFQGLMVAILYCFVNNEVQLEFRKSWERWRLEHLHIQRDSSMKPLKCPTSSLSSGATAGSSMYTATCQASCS
T2 sequence (Q12809 whole entry): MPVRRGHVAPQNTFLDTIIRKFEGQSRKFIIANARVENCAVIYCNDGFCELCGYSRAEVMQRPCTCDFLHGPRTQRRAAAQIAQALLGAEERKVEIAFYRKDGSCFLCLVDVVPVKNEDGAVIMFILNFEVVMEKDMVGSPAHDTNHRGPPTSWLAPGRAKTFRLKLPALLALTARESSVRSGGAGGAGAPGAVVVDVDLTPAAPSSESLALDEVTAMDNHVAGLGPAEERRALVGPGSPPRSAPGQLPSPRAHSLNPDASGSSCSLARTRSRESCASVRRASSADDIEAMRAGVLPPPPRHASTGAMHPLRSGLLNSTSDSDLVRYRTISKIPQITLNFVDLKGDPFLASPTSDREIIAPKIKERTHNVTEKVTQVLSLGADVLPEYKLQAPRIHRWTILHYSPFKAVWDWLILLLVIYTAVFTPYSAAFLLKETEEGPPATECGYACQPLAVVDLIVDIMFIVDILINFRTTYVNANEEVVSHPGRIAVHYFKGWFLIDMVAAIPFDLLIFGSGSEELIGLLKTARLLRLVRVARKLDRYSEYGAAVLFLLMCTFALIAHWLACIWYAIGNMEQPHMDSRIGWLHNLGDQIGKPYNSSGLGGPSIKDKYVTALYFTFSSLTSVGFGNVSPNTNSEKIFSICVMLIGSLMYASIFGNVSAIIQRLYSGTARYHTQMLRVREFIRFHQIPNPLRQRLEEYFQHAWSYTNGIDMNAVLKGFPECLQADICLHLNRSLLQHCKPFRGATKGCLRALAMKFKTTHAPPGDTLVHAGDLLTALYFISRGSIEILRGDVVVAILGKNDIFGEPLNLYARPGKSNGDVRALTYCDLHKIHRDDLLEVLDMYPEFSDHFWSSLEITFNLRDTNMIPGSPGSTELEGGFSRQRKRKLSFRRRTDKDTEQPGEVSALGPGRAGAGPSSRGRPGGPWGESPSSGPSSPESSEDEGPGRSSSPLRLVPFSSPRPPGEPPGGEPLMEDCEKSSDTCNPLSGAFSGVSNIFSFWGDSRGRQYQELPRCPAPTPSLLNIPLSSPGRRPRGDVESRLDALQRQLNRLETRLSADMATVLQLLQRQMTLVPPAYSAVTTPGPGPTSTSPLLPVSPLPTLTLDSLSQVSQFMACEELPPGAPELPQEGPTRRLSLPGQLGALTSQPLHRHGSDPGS

Regarding `N#Cc1ccc(COc2cccc(C3=CCN(Cc4nc5ccc(C(=O)O)cc5n4C[C@@H]4CCO4)CC3)n2)c(F)c1` [Example 1], at GLP-1 receptor, the EC50 (commonly the concentration at which the effect is half-maximal) was 0.12 nM and the Emax (as a rule, the size of the effect at its maximum, as opposed to the concentration needed) was determined as 110%.

As for `C[C@]1(c2ccc(Cl)cc2F)Oc2cccc(C3=CCN(Cc4nc5ccc(C(=O)O)nc5n4C[C@@H]4CCO4)CC3)c2O1` [Example 7, 2-((4-((S)-2-(4-chloro-2-fluorophenyl)-2-methylbenzo[d][1,3]dioxol-4-yl)-3,6-dihydropyridin-1(2H)-yl)methyl)-3-(((S)-oxetan-2-yl)methyl)-3H-imidazo[4,5-b]pyridine-5-carboxylic acid], at GLP-1 receptor, the EC50 was found to be 0.45 nM and the Emax is 107%.

As for `CC(Oc1cccc(C2=CCN(Cc3nc4ccc(C(=O)O)cc4n3C[C@@H]3CCO3)CC2)n1)c1ccc(Cl)cc1F` (stereo partly drawn) [Example 3], at GLP-1 receptor, the EC50 was determined as 1.38 nM and the Emax was 106%.

For `N#Cc1ccc(CSc2nc(C3=CCN(Cc4nc5ccc(C(=O)O)cc5n4C[C@@H]4CCO4)CC3)ccc2F)c(F)c1` [Example 6, (S)-2-((6-(4-cyano-2-fluorobenzyl)thio-5-fluoro-3′,6′-dihydro-[2,4′-bipyridin]-1′(2′H)-yl)methyl)-1-(oxetan-2-ylmethyl)-1H-benzo[d]imidazole-6-carboxylic acid], on GLP-1 receptor, the EC50 turned out to be 0.85 nM and the Emax came to 108%.

As for `N#Cc1ccc(CSc2cccc(C3=CCN(Cc4nc5ccc(C(=O)O)cc5n4C[C@@H]4CCO4)CC3)n2)c(F)c1` [Example 5, (S)-2-((6-(4-cyano-2-fluorobenzyl)thio-3′,6′-dihydro-[2,4′-bipyridin]-1′(2′H)-yl)methyl)-1-(oxetan-2-ylmethyl)-1H-benzo[d]imidazole-6-carboxylic acid], on GLP-1 receptor, the EC50 is 1.93 nM and the Emax was 110%.

Regarding `CC1(c2ccc(Cl)cc2F)Oc2cccc(C3=CCN(Cc4nc5ccc(C(=O)O)cc5n4C[C@@H]4CCO4)CC3)c2O1` (stereo partly drawn) [Example 2, 2-((4-(2-(4-chloro-2-fluorophenyl)-2-methylbenzo[d][1,3]dioxol-4-yl)-3,6-dihydropyridin-1(2H)-yl)methyl)-1-(((S)-oxetan-2-yl)methyl)-1H-benzo[d]imidazole-6-carboxylic acid], at GLP-1 receptor, the EC50 was determined as 0.92 nM and the maximum response (Emax) amounted to 110%.

As for `C[C@]1(c2ccc(Cl)cc2F)Oc2cccc(C3=CCN(Cc4nc5ccc(C(=O)O)cc5n4C[C@@H]4CCO4)CC3)c2O1` [Example 4, 2-((4-((S)-2-(4-chloro-2-fluorophenyl)-2-methylbenzo[d][1,3]dioxol-4-yl)-3,6-dihydropyridin-1(2H)-yl)methyl)-1-(((S)-oxetan-2-yl)methyl)-1H-benzo[d]imidazole-6-carboxylic acid], on GLP-1 receptor, the EC50 worked out at 0.12 nM and the Emax stood at 104%. Further, half-maximal inhibition in assay [1] (IC50) required 22000 nM.
